Test results as given in ChEMBL document CHEMBL3885881, “DrugMatrix”.

Species: Rattus norvegicus
Assay: DrugMatrix - Regimen: Daily Repeat
Format: toxicity, organism-based, Sprague-Dawley
Parameters: regimen Daily Repeat, gender Male, age 6-8 weeks
Conditions: in vivo, po, route oral GAVAGE, vehicle .5 % CMC; for ABSOLUTE BASOPHIL / ABSOLUTE EOSINOPHIL / ABSOLUTE LYMPHOCYTE / ABSOLUTE MONOCYTE / ABSOLUTE SEGMENTED NEUTROPHIL / BASOPHIL / EOSINOPHIL / ERYTHROCYTE COUNT / HEMATOCRIT / HEMOGLOBIN / LEUKOCYTE COUNT / LYMPHOCYTE / MEAN CORPUSCULAR HEMOGLOBIN / MEAN CORPUSCULAR HEMOGLOBIN CONCENTRATION / MEAN CORPUSCULAR VOLUME / MONOCYTE / NEUTROPHIL / NUCLEATED RED BLOOD CELLS / PLATELET COUNT: tissue Blood; for ALANINE AMINOTRANSFERASE / ALBUMIN / ALKALINE PHOSPHATASE / ASPARTATE AMINOTRANSFERASE / BLOOD UREA NITROGEN / CARBON DIOXIDE / CHLORIDE / CHOLESTEROL / CREATINE PHOSPHOKINASE / CREATININE / GLUCOSE / LACTATE DEHYDROGENASE / LIPASE / PHOSPHORUS / POTASSIUM / SODIUM / TOTAL BILIRUBIN / TOTAL PROTEIN / URIC ACID: tissue Plasma
[1] = 47 mg/kg, 120 h, dose level High, time 5 day
[2] = […], 72 h, dose 3.6 mg/Kg, dose level Low, time 3 day
[3] = […], 120 h, dose 3.6 mg/Kg, dose level Low, time 5 day

## CN(C)C(=O)C(CCN1CCC(O)(c2ccc(Cl)cc2)CC1)(c1ccccc1)c1ccccc1 [LOPERAMIDE]
[1]
  ABSOLUTE BASOPHIL: 0 CELLS/uL
  ABSOLUTE EOSINOPHIL: 31.33 CELLS/uL
  ABSOLUTE LYMPHOCYTE: 6903.67 CELLS/uL
  ABSOLUTE MONOCYTE: 106 CELLS/uL
  ABSOLUTE SEGMENTED NEUTROPHIL: 859 CELLS/uL
  BASOPHIL: 0%
  EOSINOPHIL: 0.33%
  ERYTHROCYTE COUNT: 5.64 x10E6/uL
  HEMATOCRIT: 35.1%
  HEMOGLOBIN: 14.03 G/DL
  LEUKOCYTE COUNT: 7.9 x10E3/uL
  LYMPHOCYTE: 87.67%
  MEAN CORPUSCULAR HEMOGLOBIN: 24.93 pg
  MEAN CORPUSCULAR HEMOGLOBIN CONCENTRATION: 40 G/DL
  MEAN CORPUSCULAR VOLUME: 62.3 fL
  MONOCYTE: 1.33%
  NEUTROPHIL: 10.67%
  NUCLEATED RED BLOOD CELLS: 0 /100WBC
  PLATELET COUNT: 1406.33 x10E3/uL
  ALANINE AMINOTRANSFERASE: 93.33 u/L
  ALBUMIN: 4.4 G/DL
  ALKALINE PHOSPHATASE: 365.33 u/L
  ASPARTATE AMINOTRANSFERASE: 91 u/L
  BLOOD UREA NITROGEN: 16 mg/dL
  CARBON DIOXIDE: 30.67 mmol/L
  CHLORIDE: 100.67 MEQ/L
  CHOLESTEROL: 58 mg/dL
  CREATINE PHOSPHOKINASE: 208.67 u/L
  CREATININE: 0.14 mg/dL
  GLUCOSE: 162.67 mg/dL
  LACTATE DEHYDROGENASE: 118.33 u/L
  LIPASE: 7.67 u/L
  PHOSPHORUS: 10.77 mg/dL
  POTASSIUM: 4.92 MEQ/L
  SODIUM: 146.5 MEQ/L
  TOTAL BILIRUBIN: 0.17 mg/dL
  TOTAL PROTEIN: 6.07 G/DL
  URIC ACID: 0.83 mg/dL
[2]
  ABSOLUTE BASOPHIL: 0 CELLS/uL
  ABSOLUTE EOSINOPHIL: 192.67 CELLS/uL
  ABSOLUTE LYMPHOCYTE: 13020.33 CELLS/uL
  ABSOLUTE MONOCYTE: 102.67 CELLS/uL
  ABSOLUTE SEGMENTED NEUTROPHIL: 1651 CELLS/uL
  BASOPHIL: 0%
  EOSINOPHIL: 1.33%
  ERYTHROCYTE COUNT: 5.19 x10E6/uL
  HEMATOCRIT: 33.57%
  HEMOGLOBIN: 13.8 G/DL
  LEUKOCYTE COUNT: 14.97 x10E3/uL
  LYMPHOCYTE: 87%
  MEAN CORPUSCULAR HEMOGLOBIN: 26.63 pg
  MEAN CORPUSCULAR HEMOGLOBIN CONCENTRATION: 41.1 G/DL
  MEAN CORPUSCULAR VOLUME: 64.7 fL
  MONOCYTE: 0.67%
  NEUTROPHIL: 11%
  NUCLEATED RED BLOOD CELLS: 0 /100WBC
  PLATELET COUNT: 1302 x10E3/uL
  ALANINE AMINOTRANSFERASE: 64.33 u/L
  ALBUMIN: 4.2 G/DL
  ALKALINE PHOSPHATASE: 426 u/L
  ASPARTATE AMINOTRANSFERASE: 86 u/L
  BLOOD UREA NITROGEN: 16 mg/dL
  CARBON DIOXIDE: 27 mmol/L
  CHLORIDE: 102 MEQ/L
  CHOLESTEROL: 83.33 mg/dL
  CREATINE PHOSPHOKINASE: 331 u/L
  CREATININE: 0.14 mg/dL
  GLUCOSE: 168 mg/dL
  LACTATE DEHYDROGENASE: 198.33 u/L
  LIPASE: 10 u/L
  PHOSPHORUS: 11.93 mg/dL
  POTASSIUM: 5.72 MEQ/L
  SODIUM: 142.8 MEQ/L
  TOTAL BILIRUBIN: 0.13 mg/dL
  TOTAL PROTEIN: 5.63 G/DL
  URIC ACID: 1.23 mg/dL
[3]
  ABSOLUTE BASOPHIL: 0 CELLS/uL
  ABSOLUTE EOSINOPHIL: 0 CELLS/uL
  ABSOLUTE LYMPHOCYTE: 11205 CELLS/uL
  ABSOLUTE MONOCYTE: 32.67 CELLS/uL
  ABSOLUTE SEGMENTED NEUTROPHIL: 1129 CELLS/uL
  BASOPHIL: 0%
  EOSINOPHIL: 0%
  ERYTHROCYTE COUNT: 5.52 x10E6/uL
  HEMATOCRIT: 35.23%
  HEMOGLOBIN: 14.13 G/DL
  LEUKOCYTE COUNT: 12.37 x10E3/uL
  LYMPHOCYTE: 91%
  MEAN CORPUSCULAR HEMOGLOBIN: 25.63 pg
  MEAN CORPUSCULAR HEMOGLOBIN CONCENTRATION: 40.13 G/DL
  MEAN CORPUSCULAR VOLUME: 63.87 fL
  MONOCYTE: 0.33%
  NEUTROPHIL: 8.67%
  NUCLEATED RED BLOOD CELLS: 0 /100WBC
  PLATELET COUNT: 1068 x10E3/uL
  ALANINE AMINOTRANSFERASE: 58.33 u/L
  ALBUMIN: 4.3 G/DL
  ALKALINE PHOSPHATASE: 376 u/L
  ASPARTATE AMINOTRANSFERASE: 86.67 u/L
  BLOOD UREA NITROGEN: 13.67 mg/dL
  CARBON DIOXIDE: 33 mmol/L
  CHLORIDE: 101.67 MEQ/L
  CHOLESTEROL: 67.67 mg/dL
  CREATINE PHOSPHOKINASE: 233.67 u/L
  CREATININE: 0.2 mg/dL
  GLUCOSE: 140.33 mg/dL
  LACTATE DEHYDROGENASE: 157.33 u/L
  LIPASE: 9.67 u/L
  PHOSPHORUS: 12.57 mg/dL
  POTASSIUM: 6.47 MEQ/L
  SODIUM: 145.27 MEQ/L
  TOTAL BILIRUBIN: 0.2 mg/dL
  TOTAL PROTEIN: 6.07 G/DL
  URIC ACID: 1.23 mg/dL
